Patent US20030040490A1, “Drugs containing combined active ingredients” (priority 2000, published 2003)

Legend:
[1] = tested on: Sprague-Dawley rats (SD rats); experiment: oral sucrose loading test, voglibose and nateglinide (Example 2); format: in vivo, rat; details: 2.5 g/kg sucrose load, 0-120 min, average ± standard deviation
Description: An effect of the combined use of the α-glucosidase inhibitor (voglibose) and non-sulfonylurea insulin secretagogue (nateglinide) was examined in an oral sucrose loading test using Sprague-Dawley rats (SD rats). SD rats (7-week-old, male) were divided into 6 groups (6 rats per group) to give 1) a control group (distilled water administration), 2) a voglibose 0.1 mg/kg administration group, 3) a nateglinide 10 or 30 mg/kg administration group, and 4) a voglibose 0.1 mg/kg and nateglinide 10 or 30 mg/kg combined administration group. After fasting overnight, every rat was given the above-mentioned drugs by single or combined oral administration, and successively given 2.5 g/kg sucrose solution by oral administration. […] The plasma glucose level was measured by an enzymatic method using an L type Wako Glu2 (Wako Pure Chemical Industries, Ltd.). Increase in the plasma glucose area was calculated by a trapezoid method (Odaka et al., J. Nutr. Sci. Vitaminol., vol. 38, p. 37 (1992) using the plasma glucose level at each time point. The results are shown in Table 1.

[2] = tested on: Sprague-Dawley rats (SD rats); experiment: oral sucrose loading test, voglibose and repaglinide (Example 3); format: in vivo, rat; details: repaglinide 0.05 mg/kg oral, 2.5 g/kg sucrose load, 0-60 min, average ± standard deviation
Description: An effect of the combined use of the α-glucosidase inhibitor (voglibose) and the non-sulfonylurea insulin secretagogue (repaglinide) was examined in an oral sucrose loading test using Sprague-Dawley rats (SD rats).
SD rats (10-week-old, male) were divided into 4 groups (6 rats per group) to give 1) a control group (distilled water administration), 2) a repaglinide 0.05 mg/kg administration group, and 3) a voglibose 0.1 mg/kg and repaglinide 0.05 mg/kg combined administration group. After fasting overnight, every rat was given the above-mentioned drugs by single or combined oral administration, and successively given 2.5 g/kg of a sucrose solution by oral administration. The blood was drawn from the rat tail vein before administration of the sucrose solution and 15, 30 and 60 min after the administration, and the plasma glucose level was measured. The plasma glucose level was measured by an enzymatic method using an L type Wako Glu2 (Wako Pure Chemical Industries, Ltd.), and the plasma insulin level was measured by radio immunoassay using Insulotech-Mochida (Mochida Pharmaceutical Co., Ltd.).
Increase in the plasma glucose and plasma insulin areas was calculated by a trapezoid method (Odaka et al., J. Nutr. Sci. Vitaminol., vol. 38, p. 37 (1992)) using the plasma glucose and plasma insulin levels at each time point.

**Q.** What does the source list for `CC(C)[C@H]1CC[C@H](C(=O)N[C@H](Cc2ccccc2)C(=O)O)CC1` [nateglinide]?
**A.** Increase in plasma glucose area ([1]; nateglinide 10 mg/kg oral): 65 ± 28 mg·h/dL; Increase in plasma glucose area ([1]; nateglinide 30 mg/kg oral): 54 ± 15 mg·h/dL

**Q.** `OCC(CO)N[C@H]1C[C@](O)(CO)[C@@H](O)[C@H](O)[C@H]1O` [voglibose] was tested. Which “Increase in plasma glucose area” value ([1]; voglibose 0.1 mg/kg oral) did it give?
**A.** 30 ± 10 mg·h/dL

**Q.** Which “Increase in plasma glucose area” value [2] does the source give for `CCOc1cc(CC(=O)N[C@@H](CC(C)C)c2ccccc2N2CCCCC2)ccc1C(=O)O` [repaglinide] here?
**A.** 6 ± 13 mg·h/dL

**Q.** What about the “Increase in plasma insulin area” value [2] of the same compound?
**A.** 432 ± 117 μU · h/ml
